Laboratory results reported in US20240025906A1 (NEURON23, INC., priority 2022, published 2024).
pIC50, pKd: −log10 of the molar value.

Key:
TYK2 JH2 = target: T1, TYK2 JH2 (Homo sapiens, UniProt P29597); assay: TYK2 JH2 binding assay (KINOMEscan KdELECT competitive binding); conditions: TYK2 JH2 domain, DiscoverX KINOMEscan KdELECT (Assay A); read-out: Biochemical TYK2_DiscoverX_JH2_BND_Kd
T1 construct: purchased DiscoverX (KINOMEscan KdELECT service); host or cells: E. coli BL21-derived (T7 phage display) or HEK-293
T1 sequence (P29597 589-875 limits assumed): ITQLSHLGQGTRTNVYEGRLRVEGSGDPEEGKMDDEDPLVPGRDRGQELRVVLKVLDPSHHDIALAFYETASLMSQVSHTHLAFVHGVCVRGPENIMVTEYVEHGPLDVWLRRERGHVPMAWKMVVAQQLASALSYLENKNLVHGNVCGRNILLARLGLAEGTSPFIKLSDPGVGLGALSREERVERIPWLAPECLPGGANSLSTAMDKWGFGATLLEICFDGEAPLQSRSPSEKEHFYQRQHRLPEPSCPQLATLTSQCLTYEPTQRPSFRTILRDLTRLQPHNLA
Method in brief: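 Kd values come from qPCR measurement of kinase retained on an immobilized-ligand resin after 1 h room-temperature competition with compound in an 11-point, 3-fold series.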

[1] = test system: JAK1/TYK2 pSTAT5 (Tyr694/699) in THP-1 cell line; assay: IFNa-stimulated JAK1/TYK2 pSTAT5 (Tyr694/699) inhibition cellular assay, AlphaLISA; assay type: cell-based; conditions: Homo sapiens; THP-1 cells, IFNa-stimulated, AlphaLISA (Assay B); read-out: Cellular_THP1_IFNa-pSTATS_TYK2
Method in brief: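 Compound dilutions were dispensed first, and HBSS-suspended THP-1 cells were added on top (final top concentration 10000 nM, 6-fold series). After 1 h at 37 °C, IFNa (100 ng/mL as added) was applied for 30 min. Cells were then lysed and pSTAT5 was quantified by AlphaLISA.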

pKd (TYK2 JH2) | pIC50 [1] | Compound
≥ 7.00 | ≥ 6.30 | CNc1ncc(-c2nc3cc(OCc4ccccc4)ccc3o2)c2cc(NC(=O)C3CC3)ncc12 [Example 234, N-(5-(5-(benzyloxy)benzo[d]oxazol-2-yl)-8-(methylamino)-2,7-naphthyridin-3-yl)cyclopropanecarboxamide]
≥ 7.00 | ≥ 6.30 | CNc1ncc(-c2nc3cc(OCCN4CCOCC4)ccc3o2)c2cc(NC(=O)C3CC3)ncc12 [Example 235, N-(8-(methylamino)-5-(5-(2-morpholinoethoxy)benzo[d]oxazol-2-yl)-2,7-naphthyridin-3-yl)cyclopropanecarboxamide]
≥ 7.00 | ≥ 6.30 | CNc1ncc(-c2nc3cc(OCC(C)(C)C#N)ccc3o2)c2cc(NC(=O)C3CC3)ncc12 [Example 236, N-(5-(5-(2-cyano-2-methylpropoxy)benzo[d]oxazol-2-yl)-8-(methylamino)-2,7-naphthyridin-3-yl)cyclopropanecarboxamide]
≥ 7.00 | ≥ 6.30 | CNc1ncc(-c2nc3cc(C(N)=O)ccc3o2)c2cc(NC(=O)C3CC3)ncc12 [Example 237, 2-(6-(cyclopropanecarboxamido)-1-(methylamino)-2,7-naphthyridin-4-yl)benzo[d]oxazole-5-carboxamide]
≥ 7.00 | ≥ 6.30 | CNC(=O)c1ccc2oc(-c3cnc(NC)c4cnc(NC(=O)C5CC5)cc34)nc2c1 [Example 238, 2-(6-(cyclopropanecarboxamido)-1-(methylamino)-2,7-naphthyridin-4-yl)-N-methylbenzo[d]oxazole-5-carboxamide]
≥ 7.00 | ≥ 6.30 | CNc1ncc(-c2nc3cc(OC[C@@H](C)O)ccc3o2)c2cc(NC(=O)C3CC3)ncc12 [Example 239, (R)—N-(5-(5-(2-hydroxypropoxy)benzo[d]oxazol-2-yl)-8-(methylamino)-2,7-naphthyridin-3-yl)cyclopropanecarboxamide]
≥ 7.00 | ≥ 6.30 | CNc1ncc(-c2nc3cc(OC[C@H](C)O)ccc3o2)c2cc(NC(=O)C3CC3)ncc12 [Example 240, (S)—N-(5-(5-(2-hydroxypropoxy)benzo[d]oxazol-2-yl)-8-(methylamino)-2,7-naphthyridin-3-yl)cyclopropanecarboxamide]
≥ 7.00 | ≥ 6.30 | CNc1ncc(-c2nc3cc(OC[C@@H](C)OC)ccc3o2)c2cc(NC(=O)C3CC3)ncc12 [Example 241, (R)—N-(5-(5-(2-methoxypropoxy)benzo[d]oxazol-2-yl)-8-(methylamino)-2,7-naphthyridin-3-yl)cyclopropanecarboxamide]
≥ 7.00 | ≥ 6.30 | CNc1ncc(-c2nc3cc(OC[C@H](C)OC)ccc3o2)c2cc(NC(=O)C3CC3)ncc12 [Example 242, (S)—N-(5-(5-(2-methoxypropoxy)benzo[d]oxazol-2-yl)-8-(methylamino)-2,7-naphthyridin-3-yl)cyclopropanecarboxamide]
≥ 7.00 | ≥ 6.30 | CNc1ncc(-c2nc3cc(C(C)(F)F)ccc3o2)c2cc(NC(=O)C3CC3)ncc12 [Example 243, N-(5-(5-(1,1-difluoroethyl)benzo[d]oxazol-2-yl)-8-(methylamino)-2,7-naphthyridin-3-yl)cyclopropanecarboxamide]
≥ 7.00 | ≥ 6.30 | CNc1ncc(-c2nc3cc(C(F)F)ccc3o2)c2cc(NC(=O)C3CC3)ncc12 [Example 244, N-(5-(5-(difluoromethyl)benzo[d]oxazol-2-yl)-8-(methylamino)-2,7-naphthyridin-3-yl)cyclopropanecarboxamide]
≥ 7.00 | ≥ 6.30 | CNc1ncc(-c2nc3cc(CC#N)ccc3o2)c2cc(NC(=O)C3CC3)ncc12 [Example 245, N-(5-(5-(cyanomethyl)benzo[d]oxazol-2-yl)-8-(methylamino)-2,7-naphthyridin-3-yl)cyclopropanecarboxamide]
≥ 7.00 | ≥ 6.30 | CCOc1ccc2oc(-c3cnc(NC)c4cnc(NC(=O)C5CC5)cc34)nc2c1 [Example 246, N-(5-(5-ethoxybenzo[d]oxazol-2-yl)-8-(methylamino)-2,7-naphthyridin-3-yl)cyclopropanecarboxamide]
≥ 7.00 | ≥ 6.30 | CNc1ncc(-c2nc3cc(OCC(F)F)ccc3o2)c2cc(NC(=O)C3CC3)ncc12 [Example 247, N-(5-(5-(2,2-difluoroethoxy)benzo[d]oxazol-2-yl)-8-(methylamino)-2,7-naphthyridin-3-yl)cyclopropanecarboxamide]
≥ 7.00 | ≥ 6.30 | CNc1ncc(-c2nc3cc(COC)ccc3o2)c2cc(NC(=O)C3CC3)ncc12 [Example 248, N-(5-(5-(methoxymethyl)benzo[d]oxazol-2-yl)-8-(methylamino)-2,7-naphthyridin-3-yl)cyclopropanecarboxamide]
≥ 7.00 | ≥ 6.30 | CNc1ncc(-c2nc3cc(C4CCOCC4C)ccc3o2)c2cc(NC(=O)C3CC3)ncc12 (centres unmarked) [Example 249, N-(8-(methylamino)-5-(5-(3-methyltetrahydro-2H-pyran-4-yl)benzo[d]oxazol-2-yl)-2,7-naphthyridin-3-yl)cyclopropanecarboxamide]
≥ 7.00 | ≥ 6.30 | CNc1ncc(-c2nc3cc(OC4CN(S(C)(=O)=O)C4)ccc3o2)c2cc(NC(=O)C3CC3)ncc12 [Example 250, N-(8-(methylamino)-5-(5-((1-(methylsulfonyl)azetidin-3-yl)oxy)benzo[d]oxazol-2-yl)-2,7-naphthyridin-3-yl)cyclopropanecarboxamide]
≥ 7.00 | ≥ 6.30 | CNc1ncc(-c2nc3cc(OC4CN(C5CCOC5)C4)ccc3o2)c2cc(NC(=O)C3CC3)ncc12 (centres unmarked) [Example 251, N-(8-(methylamino)-5-(5-((1-(tetrahydrofuran-3-yl)azetidin-3-yl)oxy)benzo[d]oxazol-2-yl)-2,7-naphthyridin-3-yl)cyclopropanecarboxamide]
≥ 7.00 | ≥ 6.30 | CNc1ncc(-c2nc3cc(C4CN(S(C)(=O)=O)C4)ccc3o2)c2cc(NC(=O)C3CC3)ncc12 [Example 252, N-(8-(methylamino)-5-(5-(1-(methylsulfonyl)azetidin-3-yl)benzo[d]oxazol-2-yl)-2,7-naphthyridin-3-yl)cyclopropanecarboxamide]
≥ 7.00 | ≥ 6.30 | CNc1ncc(-c2nc3cc(OC4CCOCC4)ccc3o2)c2cc(NC(=O)C3CC3)ncc12 [Example 253, N-(8-(methylamino)-5-(5-((tetrahydro-2H-pyran-4-yl)oxy)benzo[d]oxazol-2-yl)-2,7-naphthyridin-3-yl)cyclopropanecarboxamide]
≥ 7.00 | ≥ 6.30 | CNc1ncc(-c2nc3ccc(CO)cc3o2)c2cc(NC(=O)C3CC3)ncc12 [Example 254, N-(5-(6-(hydroxymethyl)benzo[d]oxazol-2-yl)-8-(methylamino)-2,7-naphthyridin-3-yl)cyclopropanecarboxamide]
≥ 7.00 | ≥ 6.30 | CNc1ncc(-c2nc3cc(CC(F)(F)F)ccc3o2)c2cc(NC(=O)C3CC3)ncc12 [Example 255, N-(8-(methylamino)-5-(5-(2,2,2-trifluoroethyl)benzo[d]oxazol-2-yl)-2,7-naphthyridin-3-yl)cyclopropanecarboxamide]
≥ 7.00 | ≥ 6.30 | CNc1ncc(-c2nc3cc(OCC(C)(C)OC)ccc3o2)c2cc(NC(=O)C3CC3)ncc12 [Example 256, N-(5-(5-(2-methoxy-2-methylpropoxy)benzo[d]oxazol-2-yl)-8-(methylamino)-2,7-naphthyridin-3-yl)cyclopropanecarboxamide]
≥ 7.00 | ≥ 6.30 | CNc1ncc(-c2nc3cc(CS(C)(=O)=O)ccc3o2)c2cc(NC(=O)C3CC3)ncc12 [Example 257, N-(8-(methylamino)-5-(5-((methylsulfonyl)methyl)benzo[d]oxazol-2-yl)-2,7-naphthyridin-3-yl)cyclopropanecarboxamide]
≥ 7.00 | ≥ 6.30 | CNc1ncc(-c2nc3cc(C4COC4)ccc3o2)c2cc(NC(=O)C3CC3)ncc12 [Example 258, N-(8-(methylamino)-5-(5-(oxetan-3-yl)benzo[d]oxazol-2-yl)-2,7-naphthyridin-3-yl)cyclopropanecarboxamide]
≥ 7.00 | ≥ 6.30 | CNc1ncc(-c2nc3cc(N4CCOC(C)C4)c(C)cc3o2)c2cc(NC(=O)C3CC3)ncc12 (centres unmarked) [Example 259, N-(5-(6-methyl-5-(2-methylmorpholino)benzo[d]oxazol-2-yl)-8-(methylamino)-2,7-naphthyridin-3-yl)cyclopropanecarboxamide]
≥ 7.00 | < 6.30 | CNc1ncc(-c2nc3cccc(N4CCC4COC)c3o2)c2cc(NC(=O)C3CC3)ncc12 (centres unmarked) [Example 263, N-(5-(7-(2-(methoxymethyl)azetidin-1-yl)benzo[d]oxazol-2-yl)-8-(methylamino)-2,7-naphthyridin-3-yl)cyclopropanecarboxamide]
≥ 7.00 | ≥ 6.30 | CNc1ncc(-c2nc3cccc(N4CC(COC)C4)c3o2)c2cc(NC(=O)C3CC3)ncc12 [Example 264, N-(5-(7-(3-(methoxymethyl)azetidin-1-yl)benzo[d]oxazol-2-yl)-8-(methylamino)-2,7-naphthyridin-3-yl)cyclopropanecarboxamide]
